Results reported in ChEMBL document CHEMBL1148365, “Rational design of new antituberculosis agents: receptor-independent four-dimensional quantitative structure-activity relationship analysis of a set of isoniazid derivatives” (2004).

System: Mycobacterium tuberculosis
Test: Minimum inhibitory concentration against Mycobacterium tuberculosis var. bovis strain at 310K, with value expressed as pMIC i.e. -log of MIC (ug/mL).
Assay type: functional

| Structure (SMILES) | pMIC |
| --- | --- |
| NNC(=O)Cc1ccncc1 | 1 |
| NNC(=O)c1ccccc1 [BENZOIC ACID HYDRAZIDE] | 3.22 |
| NNC(=O)c1ccnc(F)c1 | 3.4 |
| CN(C)C(=O)N1CCC(C(=O)NN)CC1 | 0.22 |
| COc1cc(C(=O)NN)ccc1O | 1.52 |
| NNC(=O)c1cncs1 | 2 |
| CN1CCC(C(=O)NN)CC1 | 0.22 |
| NNC(=O)c1ccc(Br)cc1 | 1.92 |
| Cn1cncc1C(=O)NN | 0.52 |
| NNC(=O)c1ccccn1 | 3.82 |
| NNC(=O)Cc1ccccc1 | 1.92 |
| NNC(=O)c1ccco1 | 4.22 |
| NNC(=O)C1CCNCC1 | 0.22 |
| NNC(=O)c1ccccc1N | 1.52 |
| NNC(=O)c1ccc([N+](=O)[O-])cc1 | 1.92 |
| NNC(=O)c1cccc([N+](=O)[O-])c1 | 3.22 |
| NNC(=O)c1ccc(Cl)cc1 | 2.52 |
| NNC(=O)c1ccnc2ccccc12 | 1.1 |

| Structure (SMILES) | pMIC |
| --- | --- |
| NNC(=O)c1cnccn1 [PYRAZINE CARBOXYLIC ACID HYDRAZIDE] | 2.82 |
| Cc1ncc(C(=O)NN)c(O)n1 | 0.4 |
| NNC(=O)c1cscn1 | 1.82 |
| NNC(=O)c1cccnc1 [NICOTINIC ACID HYDRAZIDE] | 2.7 |
| NNC(=O)Cc1ccc(Cl)cc1 | 2 |
| NNC(=O)C(O)c1ccccc1 (stereo unspecified) | 1.4 |
| NNC(=O)c1ccncn1 | 1.7 |
| NNC(=O)c1c[nH]cn1 | 2.7 |
| NNC(=O)c1ccncc1 [ISONIAZID] | 4.2 |
| NNC(=O)c1ccnc(Br)c1 | 1.82 |
| NNC(=O)c1c[nH]c(S)n1 | 0.6 |
| NNC(=O)c1ccncc1N | 2.82 |
| NNC(=O)c1ccc(O)cc1 | 1.92 |
| NNC(=O)c1ccccc1[N+](=O)[O-] | 0.52 |
| NNC(=O)c1cccc(N)c1 | 2.52 |
| NNC(=O)/C=C/c1ccccc1 | 3.4 |
| Cc1cnccc1C(=O)NN | 0.7 |
| NNC(=O)C1Cc2ccccc2O1 (stereo unspecified) | 0.65 |
